In ChEMBL document CHEMBL1201862, “PubChem BioAssay data set” (2004):
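Cultured in 96-well plates, cells were exposed to test compound for 48 hours across five concentrations. GI50 = concentration required for 50% inhibition of growth.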 Activity calls are given as the source filed them. Rule as the data show it: active = GI50 up to about 1.1 µM and inactive = higher.

Legend:
Experiment in all cases: growth of human tumour cells (NCI), 48 h
K562 = tested on: K562
UO-31 = tested on: UO-31
786-0 = tested on: 786-0
Malme-3M = tested on: Malme-3M
PC-3 = tested on: PC-3
MOLT-4 = tested on: MOLT-4
IGROV-1 = tested on: IGROV-1
SNB-19 = tested on: SNB-19
RXF 393 = tested on: RXF 393
OVCAR-4 = tested on: OVCAR-4
SK-MEL-28 = tested on: SK-MEL-28
NCI-H460 = tested on: NCI-H460
UACC-257 = tested on: UACC-257
CAKI-1 = tested on: CAKI-1
HCT-15 = tested on: HCT-15
U-251 = tested on: U-251
ACHN = tested on: ACHN
SK-OV-3 = tested on: SK-OV-3
NCI/ADR-RES = tested on: NCI/ADR-RES
LOX IMVI = tested on: LOX IMVI

| Structure (SMILES) | GI50 (K562) | GI50 (UO-31) | GI50 (786-0) | GI50 (Malme-3M) | GI50 (PC-3) | GI50 (MOLT-4) | GI50 (IGROV-1) | GI50 (SNB-19) | GI50 (RXF 393) | GI50 (OVCAR-4) | GI50 (SK-MEL-28) | GI50 (NCI-H460) | GI50 (UACC-257) | GI50 (CAKI-1) | GI50 (HCT-15) [µM] | GI50 (U-251) | GI50 (ACHN) | GI50 (SK-OV-3) | GI50 (NCI/ADR-RES) | GI50 (LOX IMVI) |
| --- | --- | --- | --- | --- | --- | --- | --- | --- | --- | --- | --- | --- | --- | --- | --- | --- | --- | --- | --- | --- |
| Fc1ccccc1CN1COc2c(cc(Cl)c3cccnc23)C1 | 1.3 µM (inactive) | 0.653 µM (active) | 2.65 µM (inactive) | 2.28 µM (inactive) | 1.44 µM (inactive) | 0.239 µM (active) | 4.55 µM (inactive) | 2.24 µM (inactive) | 13.9 µM (inactive) | 0.596 µM (active) | 4.25 µM (inactive) | 0.533 µM (active) | 2.51 µM (inactive) | 1.65 µM (inactive) | 0.0165 | 1.56 µM (inactive) | 0.533 µM (active) | 6 µM (inactive) | 0.0425 µM (active) |  |
| CS/C(=N\C#N)S/C=C/C(=O)c1ccc(Cl)cc1 | 10.5 µM (inactive) | 18.3 µM (inactive) | 20.8 µM (inactive) | 26.4 µM (inactive) | 46.6 µM (inactive) | < 0.01 µM (active) | 18.3 µM (inactive) | 42 µM (inactive) | 19.6 µM (inactive) | 64.7 µM (inactive) | 20.6 µM (inactive) | > 100 µM (inactive) | 20.9 µM (inactive) | 6.52 µM (inactive) | 30.2 | 31.9 µM (inactive) | 34.4 µM (inactive) | 42.7 µM (inactive) | 27.7 µM (inactive) |  |
| OC(c1ccc2c(c1)OCO2)c1ccc2c(c1)OCO2 | > 100 µM (inactive) | 75 µM (inactive) | > 100 µM (inactive) | > 100 µM (inactive) | > 100 µM (inactive) | > 100 µM (inactive) | > 100 µM (inactive) | > 100 µM (inactive) |  | > 100 µM (inactive) | > 100 µM (inactive) | > 100 µM (inactive) | > 100 µM (inactive) | > 100 µM (inactive) | > 100 | > 100 µM (inactive) | > 100 µM (inactive) | > 100 µM (inactive) | > 100 µM (inactive) | > 100 µM (inactive) |
| CCCNC(=S)N/N=C/c1cccc(C)n1 | 31.7 µM (inactive) | 17.2 µM (inactive) | 26 µM (inactive) | 12.7 µM (inactive) | 38.6 µM (inactive) | 16.8 µM (inactive) | 42.7 µM (inactive) |  | 28.1 µM (inactive) | 39.4 µM (inactive) |  |  | 33 µM (inactive) |  | 18.5 | 21.9 µM (inactive) | 13.4 µM (inactive) | 46 µM (inactive) | 31 µM (inactive) | 16.6 µM (inactive) |
| CN1C2CCC1C(C(O)c1ccccc1[N+](=O)[O-])C(=O)C2 (stereo not given) | 32.1 µM (inactive) | 47.1 µM (inactive) | 44 µM (inactive) | > 100 µM (inactive) | 45.7 µM (inactive) | 47.4 µM (inactive) | 24.9 µM (inactive) | > 100 µM (inactive) |  | 77.3 µM (inactive) | > 100 µM (inactive) | > 100 µM (inactive) | > 100 µM (inactive) | 38.4 µM (inactive) | 19.5 | > 100 µM (inactive) | > 100 µM (inactive) | > 100 µM (inactive) | 23.4 µM (inactive) | 41.7 µM (inactive) |
| CN(C(=O)Cc1ccccc1)n1cn[n+](CC(=O)OC(C)(C)C)c1 | > 10 µM (inactive) | > 10 µM (inactive) | > 10 µM (inactive) | > 10 µM (inactive) | > 10 µM (inactive) | > 10 µM (inactive) | > 10 µM (inactive) | > 10 µM (inactive) |  | > 10 µM (inactive) | > 10 µM (inactive) | > 10 µM (inactive) | > 10 µM (inactive) | > 10 µM (inactive) | > 10 | > 10 µM (inactive) | > 10 µM (inactive) | > 10 µM (inactive) | > 10 µM (inactive) | > 10 µM (inactive) |
| C=CC1(c2ccc3ccccc3c2)OCC(CC)(CC)CO1 | 25.1 µM (inactive) | 32.7 µM (inactive) | 20.2 µM (inactive) | 28.2 µM (inactive) | 26.9 µM (inactive) | 18.2 µM (inactive) | 21.9 µM (inactive) | 17.3 µM (inactive) | 20 µM (inactive) | 41 µM (inactive) | 39.4 µM (inactive) | 22.1 µM (inactive) | 27.2 µM (inactive) |  | 17.9 | 21.5 µM (inactive) | 20.5 µM (inactive) | 53.1 µM (inactive) | 30.1 µM (inactive) | 18.4 µM (inactive) |
| COc1ccc(-c2ncnc(-c3ccc(OC)c(OC)c3)n2)cc1OC | > 100 µM (inactive) | 91 µM (inactive) | > 100 µM (inactive) | > 100 µM (inactive) | > 100 µM (inactive) |  | > 100 µM (inactive) |  | 36.5 µM (inactive) |  | > 100 µM (inactive) |  | > 100 µM (inactive) | > 100 µM (inactive) |  | > 100 µM (inactive) | > 100 µM (inactive) | > 100 µM (inactive) | > 100 µM (inactive) | > 100 µM (inactive) |
